Patent US20100317656A1, “IMIDAZO[1,2-a]PYRIDINE-2-CARBOXAMIDE DERIVATIVES, PREPARATION THEREOF AND APPLICATION THEREOF IN THERAPEUTICS” (SANOFI-AVENTIS, priority 2008, published 2010)

Target: T1, mouse Nurr1 receptor (Mus musculus, UniProt Q06219)
T1 construct: a cell line (N2A) endogenously expressing the mouse Nurr1 receptor; host or cells: Neuro-2A (N2A) mouse neuroblastoma cells stably transfected with 8NBRE-luciferase
Assay: Evaluation of the in vitro activity on N2A cells (NBRE-luciferase reporter)
Assay type: cell-based
Details: N2A (Neuro-2A) cells endogenously expressing Nurr1, stably transfected with 8NBRE-luciferase; products incubated 24 hours; luminescence
Method: The activity of the compounds according to the invention was evaluated on a cell line (N2A) endogenously expressing the mouse Nurr1 receptor and stably transfected with the NOT binding response element (NBRE) coupled to the luciferase reporter gene. The EC50 values are between 0.01 and 1000 nM. The assays were carried out according to the procedure described below.
The Neuro-2A cell line comes from a standard commercial source (ATCC). The Neuro-2A clone was obtained, from a spontaneous tumour originating from an A albino mouse strain, by R. J Klebe et al. This Neuro-2A line is subsequently stably transfected with 8NBRE-luciferase. The N2A-8NBRE cells are cultured until confluence in 75 cm^2 culture flasks containing DMEM supplemented with 10% of foetal calf serum, 4.5 g/l of glucose and 0.4 mg/ml of geneticin. After a week of culture, the cells are recovered with 0.25% trypsin for 30 seconds and then resuspended in DMEM without phenol red, containing 4.5 g/l of glucose and 10% of Hyclone delipidized serum, and deposited into transparent-bottom 96-well white plates. The cells are deposited at a rate of 60 000 per well in 75 μl for 24 hours before the addition of the products. The products are applied in 25 μl and incubated for a further 24 hours. On the day of the measurement, an equivalent volume (100 μl) of Steadylite is added to each well and then left for a period of 30 minutes in order to obtain complete cell lysis and maximum signal production. The plates are subsequently measured in a luminescence counter for microplates after having been sealed with an adhesive film. The products are prepared in the form of a stock solution at 10^−2M and then diluted in 100% of DMSO. Each product concentration is prediluted in culture medium before incubation with the cells, thus containing 0.625% final concentration of DMSO.

T1 sequence (Q06219 whole entry): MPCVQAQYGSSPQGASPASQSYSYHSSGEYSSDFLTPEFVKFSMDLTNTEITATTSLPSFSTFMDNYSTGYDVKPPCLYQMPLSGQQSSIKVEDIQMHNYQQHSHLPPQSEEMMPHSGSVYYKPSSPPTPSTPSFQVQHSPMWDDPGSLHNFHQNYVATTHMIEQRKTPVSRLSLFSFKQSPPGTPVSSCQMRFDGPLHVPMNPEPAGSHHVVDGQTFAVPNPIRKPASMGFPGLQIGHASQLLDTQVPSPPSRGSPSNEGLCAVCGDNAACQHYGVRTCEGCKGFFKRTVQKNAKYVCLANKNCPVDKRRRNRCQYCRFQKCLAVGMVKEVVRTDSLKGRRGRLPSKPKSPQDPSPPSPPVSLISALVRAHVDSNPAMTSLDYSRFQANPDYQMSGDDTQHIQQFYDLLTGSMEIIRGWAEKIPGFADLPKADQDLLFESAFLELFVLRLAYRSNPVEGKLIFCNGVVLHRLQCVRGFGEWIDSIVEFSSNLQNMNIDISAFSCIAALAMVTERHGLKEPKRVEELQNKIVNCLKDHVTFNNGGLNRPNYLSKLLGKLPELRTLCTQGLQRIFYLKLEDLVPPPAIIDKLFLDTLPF

First: O=C(c1cn2cc(-c3cccc(CO)c3)ccc2n1)N1CC=CC1 [Compound 7, {3-[2-(2,5-Dihydro-1H-pyrrol-1-ylcarbonyl)imidazo[1,2-α]pyridin-6-yl]phenyl}methanol]
Second: O=C(c1cn2cc(-c3cccc(CO)c3)ccc2n1)N1CC=CCC1 [Compound 8, {3-[2-[(1,2,5,6-Tetrahydropyridin-1-yl)carbonyl]imidazo[1,2-α]pyridin-6-yl]phenyl}methanol]
The EC50 of the first is 6.2-fold higher: 5 nM for the first, 0.8 nM for the second.

Going from `CN(C)c1ccc2nc(C(=O)N3CCc4ccc(F)cc43)cn2c1` [Compound 17, 2-[(6-Fluoro-2,3-dihydro-1H-indol-1-yl)carbonyl]-N,N-dimethylimidazo[1,2-α]pyridin-6-amine] to `O=C(c1cn2cc(-c3nc[nH]n3)ccc2n1)N1CCc2ccccc21` [Compound 35, 2-(2,3-Dihydro-1H-indol-1-ylcarbonyl)-6-(1H-1,2,4-triazol-3-yl)imidazo[1,2-α]pyridine], the EC50 rises from 6.7 nM to 11 nM (1.6-fold).

Going from `O=C(c1cn2cc(-c3ncco3)ccc2n1)N1CC=CCC1` [Compound 30, 6-(Oxazol-2-yl)-2-[(1,2,5,6-tetrahydropyridin-1-yl)carbonyl]imidazo[1,2-α]pyridine] to `O=C(c1cn2cc(-c3c[nH]cn3)ccc2n1)N1CCc2ccccc21` [Compound 43, 2-(2,3-Dihydro-1H-indol-1-ylcarbonyl)-6-(1H-imidazol-4-yl)imidazo[1,2-α]pyridine], the EC50 falls from 56 nM to 2.4 nM (23-fold). The second is the more potent here.
